Reference: patent publication US20060111305A1, “Metabolites of certain [1,4]diazepino[6,7,1-ij]quinoline derivatives and methods of preparation and use thereof” (Wyeth, priority 2004, published 2006)
“And” between values parts separate entries of the source, which are not always exact repeats. Equal values may be shown once. One block for each molecule: values may come before it.

How the values were obtained:
[1] = tested on: UGT (UDPGA-dependent glucuronidation); assay: Incubation of [14C]DCDQ with human liver microsomes (Km values, metabolite formation); type: in vitro ADME; conditions: pH 7.4; 0.5 mg/mL human liver microsomes, [14C]DCDQ 0.5-100 μM, UDPGA, 10 min
Procedure: [^14C]DCDQ was mixed with non-radiolabeled DCDQ (1:3 or 1:5) in the incubations. Microsomal incubations consisted of [^14C]DCDQ, magnesium chloride (10 mM) and liver microsomes incubated in 0.5 mL of 0.1 M potassium phosphate buffer, pH 7.4. [^14C]DCDQ (20 μL) in water was added to the incubation tubes containing buffer, magnesium chloride solution and microsomes. After mixing, the tubes were pre-incubated for 2 minutes in a shaking water bath at 37° C. The reactions were initiated by the addition of UDPGA or the NADPH regenerating system. UDPGA was added to incubations as a 50 μL aliquot of a 20 mM solution in water, to give a final concentration of 2 mM. An NADPH regenerating system (30 μL) was added to incubations to evaluate CYP450-mediated metabolism. The NADPH regenerating system consisted of glucose-6-phosphate (2 mg/mL), glucose-6-phosphate dehydrogenase (0.8 units/mL) and NADP^+ (2 mg/mL). Control incubations were conducted under the same conditions, but without the NADPH generating system, UDPGA or microsomes. All incubations were performed in duplicate. Incubations were stopped by the addition of 0.5 mL ice-cold methanol. Samples were vortex-mixed. Denatured proteins were separated by centrifugation at 4300 rpm and 4° C. for 10 minutes (Model T21 super centrifuge, Sorvall). The protein pellets were extracted with 0.5 mL of methanol. The supernatant was combined for each sample, mixed and evaporated to a volume of about 0.3 mL under a nitrogen stream in a Zymark TurboVap LV evaporator (Caliper Life Science, Hopkinton, Mass.). The concentrated sample was centrifuged and aliquots were radioassayed and analyzed by HPLC. This method recovered an average of 92.1% of the radioactivity from the reaction mixture.
Initial rate conditions were determined for DCDQ metabolism in incubations with human liver microsomes in the presence of NADPH or UDPGA. Incubations for the time course study contained 20 μM of [^14C]DCDQ and 0.5 mg/mL of microsomal proteins, and were incubated at 37° C. with mild shaking for 0, 5, 10, 20, 30, 40, 50 and 60 minutes. The protein dependence study was conducted with 20 μM of [^14C]DCDQ incubated for 20 minutes with 0, 0.1, 0.25, 0.5, 0.75 and 1.0 mg/mL of microsomal proteins.
The Km values were determined with 0.5 mg/mL of human liver microsomes incubated with [^14C]DCDQ for 20 minutes with the NADPH regenerating system or for 10 minutes with UDPGA. [^14C]DCDQ concentrations used were 0.5,1, 5, 10, 25, 50, 75 and 100 μM.
To evaluate species differences in cytochrome P450- and UGT-mediated metabolism, [^14C]DCDQ was incubated for 20 minutes with 0.5 mg/mL liver microsomal proteins from mice, rats, dogs or humans in the presence of the NADPH regenerating system or UDPGA. The assay conditions were the same as described above, and DCDQ concentrations were 12 μM and 56 μM for cytochrome P450- and UGT-mediated metabolism, respectively.
A Waters model 2690 HPLC system (Waters Corp., Milford, Mass.) with a built-in autosampler was used for analysis. Separations were accomplished on a Phenomenex Luna C18(2) column (2×150 mm, 5 μm) (Phenomenex, Torrance, Calif.) coupled with a filter (4×2 mm) cartridge. A variable wavelength UV detector set to monitor 250 nm and Flo-One β Model A525 radioactivity flow detector (Perkin Elmer) with a 250 μL LQTR flow cell were used for data acquisition. The flow rate of Ultima Flow M scintillation fluid was 1 mL/min, providing a mixing ratio of scintillation cocktail to mobile phase of 5:1. The sample chamber in the autosampler was maintained at 4° C., while the column was at ambient temperature of about 20° C. The mobile phase consisted of 10 mM ammonium acetate, pH 4.5 (A) and methanol (B) and was delivered at 0.2 mL/min. The linear gradient conditions were as follows: […]

[2] = Dog blood and plasma radioactivity concentrations after single 15 mg/kg oral enteric-coated capsule of [14C]DCDQ; type: in vivo, beagle dogs; conditions: 15 mg/kg oral capsule; for Blood concentration of radioactivity, individual dogs 1-4 / Plasma concentration of radioactivity, individual dogs 1-4: 15 mg/kg
Procedure: About 11 mg of [^14C]DCDQ hydrochloride and 940 mg of non-labeled DCDQ hydrochloride were dissolved in methanol and then evaporated under a nitrogen stream to dryness. Capsules (#2) were filled with accurate amounts (126.7-138.1 mg) of the mixed drug substance according to animal weights. The filled gelatin capsules were then enteric-coated manually. Four male beagle dogs, weighing from 7.6 to 9.8 kg at the time of dosing, were from an in-house colony. Each dog was given one enteric-coated capsule containing [^14C]DCDQ as the hydrochloride salt. Animals were fed two hours prior to dosing and provided Purina dog chow and water ad libitum, and were housed individually in metabolic cages. Blood samples were collected from the jugular vein at 2, 4, 8, 24 and 48 hour after dose administration into tubes containing potassium EDTA as the anticoagulant and then placed on ice. Aliquots of 50 μL were removed for combustion and determination of radioactivity content. Plasma was immediately obtained from the remaining blood by centrifugation at 4° C. Urine samples were collected into tubes on dry ice at intervals of 0-8, 8-24 and 24-48 hour post-dose. Fecal samples were collected at intervals of 0-8, 8-24 and 24-48 hour post-dose at room temperature, and were homogenized. The biological specimens were stored at approximately −70° C. until analysis. Aliquots of 50 μL of plasma and 100-200 μL of urine were analyzed for radioactivity concentrations. Radioactivity determinations of dose, plasma, and urine were made with a Tri-Carb Model 3100 TR/LL LSC using 5-10 mL of Ultima Gold as the scintillation fluid. Feces were weighed and homogenized in water at a volume-to-weight ratio of about 5:1. Aliquots of blood (200 μL) and fecal homogenates (0.25-0.53 gram) were placed on Combusto-cones with Combusto-pads and combusted. A model 307 Tri-Carb sample oxidizer, equipped with an Oximate-80 robotic automatic sampler (Perkin Elmer), was used for combustion of blood and fecal samples. The liberated ^14CO2 was trapped with Carbo-Sorb E carbon dioxide absorber, mixed with PermaFluor® E+ liquid scintillation cocktail, and counted on a Tri-Carb Model 3100 TR/LL liquid scintillation counter (Perkin Elmer). The efficiency of combustion was 98.9%.

[3] = dogs; cited from earlier work

Km at 10 min [1]: 56.1 µM
SMILES: O=C(O)[C@H]1O[C@@H](OC(=O)N2CCN3C[C@@H]4CCC[C@@H]4c4cccc(c43)C2)[C@H](O)[C@@H](O)[C@@H]1O [Metabolite M6, carbamoyl glucuronide of DCDQ]

SMILES: c1cc2c3c(c1)[C@H]1CCC[C@H]1CN3CCNC2 [[^14C]DCDQ]
Blood concentration of radioactivity, Mean ± SD ([2]; 2 hr): 262 ± 391 ng equivalents/mL
Plasma concentration of radioactivity, Mean ± SD ([2]; 2 hr): 422 ± 573 ng equivalents/mL
Blood concentration of radioactivity, individual dogs 1-4 ([2]; 2 hr): 161 ng equivalents/mL and 840 ng equivalents/mL and 48.6 ng equivalents/mL and 0.00 ng equivalents/mL
Plasma concentration of radioactivity, individual dogs 1-4 ([2]; 2 hr): 360 ng equivalents/mL and 1250 ng equivalents/mL and 74.4 ng equivalents/mL and 4.13 ng equivalents/mL
Blood concentration of radioactivity, Mean ± SD ([2]; 4 hr): 372 ± 505 ng equivalents/mL
Plasma concentration of radioactivity, Mean ± SD ([2]; 4 hr): 564 ± 748 ng equivalents/mL
Blood concentration of radioactivity, individual dogs 1-4 ([2]; 4 hr): 319 ng equivalents/mL and 1100 ng equivalents/mL and 66.7 ng equivalents/mL and 0.90 ng equivalents/mL
Plasma concentration of radioactivity, individual dogs 1-4 ([2]; 4 hr): 500 ng equivalents/mL and 1640 ng equivalents/mL and 112 ng equivalents/mL and 4.13 ng equivalents/mL
Blood concentration of radioactivity, Mean ± SD ([2]; 8 hr): 347 ± 378 ng equivalents/mL
Plasma concentration of radioactivity, Mean ± SD ([2]; 8 hr): 528 ± 566 ng equivalents/mL
Blood concentration of radioactivity, individual dogs 1-4 ([2]; 8 hr): 331 ng equivalents/mL and 878 ng equivalents/mL and 176 ng equivalents/mL and 5.41 ng equivalents/mL
Plasma concentration of radioactivity, individual dogs 1-4 ([2]; 8 hr): 541 ng equivalents/mL and 1310 ng equivalents/mL and 256 ng equivalents/mL and 4.13 ng equivalents/mL
Blood concentration of radioactivity, Mean ± SD ([2]; 24 hr): 920 ± 341 ng equivalents/mL
Plasma concentration of radioactivity, Mean ± SD ([2]; 24 hr): 1340 ± 508 ng equivalents/mL
Blood concentration of radioactivity, individual dogs 1-4 ([2]; 24 hr): 980 ng equivalents/mL and 782 ng equivalents/mL and 1360 ng equivalents/mL and 556 ng equivalents/mL
Plasma concentration of radioactivity, individual dogs 1-4 ([2]; 24 hr): 1530 ng equivalents/mL and 1110 ng equivalents/mL and 1940 ng equivalents/mL and 769 ng equivalents/mL
Blood concentration of radioactivity, Mean ± SD ([2]; 48 hr): 343 ± 79.9 ng equivalents/mL
Plasma concentration of radioactivity, Mean ± SD ([2]; 48 hr): 507 ± 135 ng equivalents/mL
Blood concentration of radioactivity, individual dogs 1-4 ([2]; 48 hr): 333 ng equivalents/mL and 434 ng equivalents/mL and 364 ng equivalents/mL and 241 ng equivalents/mL
Plasma concentration of radioactivity, individual dogs 1-4 ([2]; 48 hr): 504 ng equivalents/mL and 669 ng equivalents/mL and 517 ng equivalents/mL and 339 ng equivalents/mL

SMILES: c1cc2c3c(c1)[C@H]1CCC[C@H]1CN3CCNC2 [DCDQ, (9aR,12aS)-4,5,6,7,9,9a,10,11,12,12a-decahydro-cyclopenta[c][1,4]diazepine[6,7,1-ij]quinoline, reference compound]
oral bioavailability [3]: approximately 25.4%
